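Values below derive from 48-hour exposures of cells grown in 96-well plates, with endpoints linearly interpolated between the two concentrations bracketing the appropriate inhibition level. TGI is the concentration that stops growth completely.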
Assays:
Assay in all cases: NCI-60 cell line screen, 48 h
A549 NSCLC = test system: A549 NSCLC
ACHN renal = test system: ACHN renal
HCC-2998 colon = test system: HCC-2998 colon
HL-60(TB) leukemia = test system: HL-60(TB) leukemia
IGROV1 ovarian = test system: IGROV1 ovarian
M14 melanoma = test system: M14 melanoma
NCI-H226 lung = test system: NCI-H226 lung
OVCAR-3 ovarian = test system: OVCAR-3 ovarian
SF-268 CNS = test system: SF-268 CNS
MDA-MB-435 = test system: MDA-MB-435
T-47D breast = test system: T-47D breast
RXF 393 renal = test system: RXF 393 renal

Row | Compound | TGI (A549 NSCLC) | TGI (ACHN renal) | TGI (HCC-2998 colon) | TGI (HL-60(TB) leukemia) | TGI (IGROV1 ovarian) | TGI (M14 melanoma) | TGI (NCI-H226 lung) | TGI (OVCAR-3 ovarian) | TGI (SF-268 CNS) | TGI (MDA-MB-435) | TGI (T-47D breast) | TGI (RXF 393 renal)
1 | O=C(c1ccccc1)c1c(CC(O)c2ccncc2)n(C(=O)c2ccccc2)c2ccccc12 (stereo unspecified) | 52.8 µM | 67.5 µM | 31.5 µM | 39.9 µM | 40.5 µM | 30.8 µM | 30.8 µM | 28.9 µM | 49.3 µM |  |  | 
2 | Nc1ccc(Nc2cc(=O)[nH]c(=O)[nH]2)cc1Cl | > 100 µM | > 100 µM | > 100 µM | > 100 µM |  | > 100 µM | > 100 µM | > 100 µM | > 100 µM | > 100 µM | > 100 µM | 
3 | CCCCCCCCCCCC[N+](CCCCCCCCCCCC)=C1SCCS1 | 18 µM | 25.1 µM | 22.4 µM | 12.1 µM | 23.4 µM | 22.3 µM | 28.2 µM | 19.8 µM | 21.5 µM |  |  | 14.8 µM
4 | CC(C)(CCC(C)(C)N1OC1c1ccccc1)N1OC1c1ccccc1 (stereo unspecified) | > 100 µM | 35.8 µM | > 100 µM | 44.3 µM |  |  | > 100 µM |  | > 100 µM | > 100 µM | > 100 µM | 
5 | CC(=O)OCC1OC(OCCCOP(=S)(OCCC#N)OCC2OC(n3ccc(N)nc3=O)C(OC(=O)c3ccccc3)C2OC(=O)c2ccccc2)C(OC(C)=O)C(OC(C)=O)C1OC(C)=O (stereo unspecified) | > 100 µM | > 100 µM | > 100 µM |  | > 100 µM | > 100 µM | > 100 µM | > 100 µM | > 100 µM | > 100 µM | > 100 µM | > 100 µM
6 | C=C(C)[C@@H]1CC[C@]2(C(=O)OC)CC[C@]3(C)[C@H](CC[C@@H]4[C@@]5(C)CC[C@H](O)C(C)(C)[C@@H]5CC[C@]43C)[C@@H]12 | 37.7 µM | 32.9 µM |  | > 100 µM | 42.2 µM | > 100 µM | 44.4 µM | 40.1 µM | 67.3 µM | 42.5 µM | 34 µM | 38.9 µM
7 | O=C(O)c1ccccc1N=Nc1c(O)c(S(=O)(=O)O)cc2cc(S(=O)(=O)O)ccc12 | > 100 µM | > 100 µM | > 100 µM | > 100 µM | > 100 µM | > 100 µM |  | > 100 µM | > 100 µM | > 100 µM | > 100 µM | > 100 µM
8 | N#CCCC1(CCC#N)CCCCCCCCC(CCC#N)(CCC#N)C(O)C1O (stereo unspecified) | > 100 µM | > 100 µM | > 100 µM |  | > 100 µM | > 100 µM | > 100 µM | > 100 µM | > 100 µM | > 100 µM | > 100 µM | 86.9 µM
9 | C=C1CC[C@@H](C)[C@](C)(CCc2ccoc2)C/C=C\C=C/1C(=O)O | > 100 µM | > 100 µM |  | 57 µM | > 100 µM | > 100 µM | > 100 µM | 42.9 µM |  | > 100 µM |  | 90.8 µM
10 | O=C1NC2CCCCCC2C12CCCCC2 (stereo unspecified) | > 100 µM | > 100 µM | > 100 µM | > 100 µM | > 100 µM | > 100 µM | > 100 µM | > 100 µM | > 100 µM |  |  | > 100 µM
11 | CCN(CC)c1nnc(CCCCCCCCc2nnc(N(CC)CC)o2)o1 | > 100 µM | > 100 µM |  | > 100 µM | > 100 µM | > 100 µM | > 100 µM | > 100 µM | > 100 µM | > 100 µM |  | > 100 µM
12 | O=c1[nH]c2nc3ccccc3c(=O)n2/c1=C/c1ccco1 | > 100 µM | > 100 µM | > 100 µM | > 100 µM | > 100 µM | > 100 µM | > 100 µM | > 100 µM | > 100 µM | > 100 µM | > 100 µM | 
13 | O=NN(CCF)C(=O)NC1CCSCC1 | > 100 µM |  | > 100 µM | > 100 µM | > 100 µM |  |  | > 100 µM | > 100 µM |  |  | > 100 µM
14 | CCc1ccc2c(c1)N(CC(C)CN(C)C)c1ccccc1S2 (stereo unspecified) | 21.7 µM | 15.5 µM |  | 8.66 µM | 15 µM | 4.12 µM | 25.5 µM | 12.4 µM | 20.5 µM | 8.13 µM | 10.7 µM | 10.3 µM
15 | O=C(O)c1cc(CCc2cc(O)ccc2O)ccc1O | > 100 µM | > 100 µM |  | 77.7 µM | > 100 µM | > 100 µM | > 100 µM | > 100 µM | > 100 µM | > 100 µM | > 100 µM | > 100 µM
16 | COc1ccc(C2=NOC(N)(c3ccc(OC)cc3)C2)cc1 (stereo unspecified) | > 100 µM | > 100 µM | > 100 µM | > 100 µM | > 100 µM | > 100 µM | > 100 µM | > 100 µM |  | > 100 µM |  | 
17 | CNNC(=NS(=O)(=O)c1cc(C#N)c(NNC)cc1S)NNC | > 10 µM | > 10 µM | > 10 µM | > 10 µM | > 10 µM | > 10 µM | > 10 µM | > 10 µM | > 10 µM |  | > 10 µM | > 10 µM
18 | COc1cccc(C2c3cc4c(cc3OC3COC(=O)C32)OCO4)c1OC (stereo unspecified) | > 100 µM | > 100 µM | > 100 µM | > 100 µM | > 100 µM | > 100 µM | > 100 µM | > 100 µM | > 100 µM |  |  | > 100 µM
19 | COc1ccc(NC(=O)C(=O)/C=C(\O)c2ccccc2)cc1 | > 10 µM |  | > 10 µM | > 10 µM | > 10 µM | > 10 µM |  |  | > 10 µM | > 10 µM | > 10 µM | > 10 µM
20 | CO/N=C1/c2sccc2[C@H](NC(=O)C(Cc2ccccc2)NC(=O)OC(C)(C)C)[C@@H]1O (stereo partly specified) | > 100 µM |  | > 100 µM | > 100 µM | > 100 µM | > 100 µM | > 100 µM | > 100 µM | > 100 µM | > 100 µM | > 100 µM | > 100 µM
21 | CSc1c(C#N)c(N)n(-c2ccc(Cl)cc2)c(=O)c1C#N | > 100 µM |  | > 100 µM | > 100 µM | > 100 µM | > 100 µM | > 100 µM | > 100 µM | > 100 µM | > 100 µM | > 100 µM | > 100 µM
